# Measured values published in patent publication US10131675B2 (Genentech, Inc., priority 2015, dated 2018).
# Target: DLK (Homo sapiens (Human), UniProt Q12852)
# Assay: DLK TR-FRET Inhibition Assay
# Format: biochemical
# Conditions: N-terminally GST-tagged DLK (catalytic domain amino acid 1-520), MKK4 K131M substrate, 30 μM ATP; read-out: DLK HTRF Ki
# Experimental: DLK kinase reactions (20 μL) containing 5 nM N-terminally GST-tagged DLK (catalytic domain amino acid 1-520) (Carna Bioscience), 40 nM N-terminally HIS tagged MKK4 K131M substrate, and 30 μM ATP in kinase reaction buffer (50 mM HEPES, pH 7.5, 0.01% Triton X-100, 0.01% Bovine γ-Globulins, 2 mM DTT, 10 mM MgCl2 and 1 mM EGTA), and testing compound 1:3 serial diluted starting at 20 uM were incubated at ambient temperature for 60 minutes in 384 well OptiPlate (Perkin Elmer). To quench kinase reactions and detect phosphorylated MKK4, 15 μL of TR-FRET antibody mixture containing 2 nM anti-phosphorylated MKK4 labeled with Europium cryptate (Cisbio) and 23 nM anti-HIS labeled with D2 (Cisbio) in detection buffer (25 mM Tris pH 7.5, 100 mM NaCl, 100 mM EDTA, 0.01% Tween-20, and 200 mM KF) was added to the reaction mixture. The detection mixture was incubated for 3 hours at ambient temperature and the TR-FRET was detected with an EnVision multilabel plate reader (Perkin-Elmer) using the LANCE/DELFIA Dual Enh label from Perkin-Elmer (excitation filter: UV2 (TRF) 320 and emission filters: APC 665 and Europium 615).
# Chain of DLK (Q12852 1-520): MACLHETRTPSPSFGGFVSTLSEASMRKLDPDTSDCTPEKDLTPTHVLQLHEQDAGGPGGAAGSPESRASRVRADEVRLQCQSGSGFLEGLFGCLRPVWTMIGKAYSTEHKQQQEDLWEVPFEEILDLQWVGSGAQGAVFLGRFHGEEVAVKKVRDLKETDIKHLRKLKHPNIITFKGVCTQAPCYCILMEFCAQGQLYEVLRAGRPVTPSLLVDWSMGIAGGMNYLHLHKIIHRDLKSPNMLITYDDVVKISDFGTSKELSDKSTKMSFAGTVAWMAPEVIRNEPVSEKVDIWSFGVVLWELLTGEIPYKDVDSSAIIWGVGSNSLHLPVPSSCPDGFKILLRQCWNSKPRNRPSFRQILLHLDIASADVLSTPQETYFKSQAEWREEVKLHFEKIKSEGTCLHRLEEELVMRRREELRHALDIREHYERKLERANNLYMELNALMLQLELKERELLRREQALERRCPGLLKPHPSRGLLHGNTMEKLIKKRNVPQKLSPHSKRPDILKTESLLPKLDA
row,SMILES,Ki [nM]
1,CC1(C)OCCn2c1nc1c(N3CCC(F)(F)C3)nc(-c3cnc(N)c(Cl)c3)nc12 [Example 81],272
2,"CC1(C)OCCn2c1nc1c(N3CC4(COC4)C3)nc(-c3cnc(N)nc3)nc12 [Example 50, 5-[8,8-Dimethyl-1-(2-oxa-6-aza-spiro[3.3]hept-6-yl)-5,6-dihydro-8H-7-oxa-2,4,4b,9-tetraaza-fluoren-3-yl]-pyrimidin-2-ylamine]",490
3,"CC1(C)OCCn2c1nc1c(N3CCC4(COC4)C3)nc(-c3cnc(N)nc3)nc12 [Example 8, 5-[8,8-Dimethyl-1-(2-oxa-6-aza-spiro[3.4]oct-6-yl)-5,6-hydro-8H-7-oxa-2,4,4b,9-tetraaza-fluoren-3-yl]-pyrimidin-2-ylamine]",469
4,"CCOc1cc(-c2nc(N3CC4CC3C4)c3nc4n(c3n2)CCOC4(C)C)cnc1N [Example 21, 5-[1-(2-Aza-bicyclo[2.1.1]hex-2-yl)-8,8-dimethyl-5,6-dihydro-8H-7-oxa-2,4,4b,9-tetraaza-fluoren-3-yl]-3-ethoxy-pyridin-2-ylamine]",279
5,"CC(C)Oc1cc(-c2nc(N3CC4CC3C4)c3nc4n(c3n2)CCOC4(C)C)cnc1N [Example 22, 5-[1-(2-Aza-bicyclo[2.1.1]hex-2-yl)-8,8-dimethyl-5,6-dihydro-8H-7-oxa-2,4,4b,9-tetraaza-fluoren-3-yl]-3-isopropoxy-pyridin-2-ylamine]",406
6,Cc1c[nH]c2ncc(-c3nc(N4CC(F)(F)C4)c4nc5n(c4n3)CCOC5(C)C)cc12 [Example 66],11.9
7,"CC1(C)OCCn2c1nc1c(N3CC4CC3C4)nc(-c3cnc(N)c(F)c3)nc12 [Example 36, 5-[1-(2-Aza-bicyclo[2.1.1]hex-2-yl)-8,8-dimethyl-5,6-dihydro-8H-7-oxa-2,4,4b,9-tetraaza-fluoren-3-yl]-3-fluoro-pyridin-2-ylamine]",444
8,CC1(C)OCCn2c1nc1c(N3CC(F)(F)C3)nc(-c3cnc(N)nc3)nc12 [Example 68],480
9,CC(C)Oc1cc(-c2nc(N3CCC(F)(F)C3)c3nc4n(c3n2)CCOC4(C)C)cnc1N [Example 79],269
10,"CC(C)N(c1nc(-c2cnc(N)nc2)nc2c1nc1n2CCOC1(C)C)C1CCC1 [Example 64, 2-(2-aminopyrimidin-5-yl)-N-cyclobutyl-N-isopropyl-6,6-dimethyl-8,9-dihydro-6H-[1,4]oxazino[4,3-e]purin-4-amine]",267
11,CCC(C)Oc1cc(-c2nc(N3CC(F)(F)C3)c3nc4n(c3n2)CCOC4(C)C)cnc1N (centres unmarked) [Example 72],230
12,"CC1(C)OCCn2c1nc1c(N3CC4(CCCO4)C3)nc(-c3cnc(N)nc3)nc12 [Example 51, 5-[8,8-Dimethyl-1-(5-oxa-2-aza-spiro[3.4]oct-2-yl)-5,6-dihydro-8H-7-oxa-2,4,4b,9-tetraaza-fluoren-3-yl]-pyrimidin-2-ylamine]",907
13,"CC1(C)OCCn2c1nc1c(N3CC4CCC3C4)nc(-c3cnc(N)nc3)nc12 (centres unmarked) [Example 33, 5-[1-(2-Aza-bicyclo[2.2.1]hept-2-yl)-8,8-dimethyl-5,6-dihydro-8H-7-oxa-2,4,4b,9-tetraaza-fluoren-3-yl]-pyrimidin-2-ylamine]",90.3
14,"CC1(C)OCCn2c1nc1c(NC3CC3)nc(-c3cnc(N)nc3)nc12 [Example 59, 2-(2-aminopyrimidin-5-yl)-N-cyclopropyl-6,6-dimethyl-8,9-dihydro-6H-[1,4]oxazino[4,3-e]purin-4-amine]",192
15,"Cc1c[nH]c2ncc(-c3nc(N4CC5CC4C5)c4nc5n(c4n3)CCOC5(C)C)cc12 [Example 3, 1-(2-Aza-bicyclo[2.2.1]hex-2-yl)-8,8-dimethyl-3-(3-methyl-1H-pyrrolo[2,3-b]pyridin-5-yl)-5,6-dihydro-8H-7-oxa-2,4,4b,9-tetraaza-fluorene]",4.92
16,"CC1(C)OCCn2c1nc1c(N3CC4CC3C4)nc(-c3cnc4ccnn4c3)nc12 [Example 38, 1-(2-Aza-bicyclo[2.1.1]hex-2-yl)-8,8-dimethyl-3-pyrazolo[1,5-a]pyrimidin-6-yl-5,6-dihydro-8H-7-oxa-2,4,4b,9-tetraaza-fluorene]",280

# More lines, now with the values ahead:
row,Ki [nM],SMILES
1,359,CC1(C)OCCn2c1nc1c(C3CC3)nc(-c3cnc(N)nc3)cc12 [Example 120]
2,297,"CC1(C)OCCn2c1nc1c(C3CCC3)nc(-c3cnc(N)nc3)nc12 [Example 104, 5-(4-cyclobutyl-6,6-dimethyl-8,9-dihydro-6H-[1,4]oxazino[4,3-e]purin-2-yl)pyrimidin-2-amine]"
3,571,CC(C)Oc1nc(-c2cnc(N)nc2)nc2c1nc1n2CCOC1(C)C [Example 85]
4,626,"CC1(C)OCCn2c1nc1c(C3CC3)nc(-c3cnc4c(c3)CCN4)nc12 [Example 125, 4-cyclopropyl-2-(2,3-dihydro-1H-pyrrolo[2,3-b]pyridin-5-yl)-6,6-dimethyl-8,9-dihydro-6H-[1,4]oxazino[4,3-e]purine]"
5,239,"C[C@H]1OCCn2c1nc1c(N3CC4CC3C4)nc(-c3cnc(N)nc3)nc12 (single isomer, unassigned) [Example 108]"
6,183,CC1(C)OCCn2c1nc1c(N3CC(C#N)C3)nc(-c3cnc4[nH]cc(F)c4c3)nc12 [Example 152]
7,211,"C[C@]1(C2CC2)OCCn2c1nc1c(C3CC3)nc(-c3cnc(N)nc3)nc12 (single isomer, unassigned) [Example 105]"
8,264,"CC1(C)OCCn2c1nc1c(C3CC3)nc(-c3cnc(N)c(C#N)c3)nc12 [Example 126, 2-amino-5-(4-cyclopropyl-6,6-dimethyl-8,9-dihydro-6H-[1,4]oxazino[4,3-e]purin-2-yl)nicotinonitrile]"
9,177,"CC1(C)OCCCn2c1nc1c(N3CC4CC3C4)nc(-c3cnc(N)nc3)nc12 [Example 137, 5-(4-(2-azabicyclo[2.1.1]hexan-2-yl)-6,6-dimethyl-6,8,9,10-tetrahydro-[1,4]oxazepino[4,3-e]purin-2-yl)pyrimidin-2-amine]"
10,225,"CC1(C(F)(F)F)OCCn2c1nc1c(N3CC4CC3C4)nc(-c3cnc(N)nc3)nc12 (centres unmarked) [Example 100, 5-(4-(2-azabicyclo[2.1.1]hexan-2-yl)-6-methyl-6-(trifluoromethyl)-8,9-dihydro-6H-[1,4]oxazino[4,3-e]purin-2-yl)pyrimidin-2-amine]"
11,60.7,"COC1CN(c2nc(-c3cnc4[nH]cc(C(F)(F)F)c4c3)nc3c2nc2n3CCOCC2)C1 [Example 131, 4-(3-methoxyazetidin-1-yl)-2-(3-(trifluoromethyl)-1H-pyrrolo[2,3-b]pyridin-5-yl)-6,7,9,10-tetrahydro-[1,4]oxazepino[4,5-e]purine]"
12,447,"Nc1ncc(-c2nc(N3CC4CC3C4)c3nc4n(c3n2)CCOCC4)cn1 [Example 133, 5-(4-(2-azabicyclo[2.1.1]hexan-2-yl)-6,7,9,10-tetrahydro-[1,4]oxazepino[4,5-e]purin-2-yl)pyrimidin-2-amine]"
13,476,"CC1(c2nc(-c3cnc(N)nc3)nc3c2nc2n3CCOC2(C)C)CC1 [Example 95, 5-(6,6-dimethyl-4-(1-methylcyclopropyl)-8,9-dihydro-6H-[1,4]oxazino[4,3-e]purin-2-yl)pyrimidin-2-amine]"
14,281,"Nc1ncc(-c2nc(N3CC4CC3C4)c3nc4n(c3n2)CCCOC4)cn1 [Example 132, 5-(4-(2-azabicyclo[2.1.1]hexan-2-yl)-6,8,9,10-tetrahydro-[1,4]oxazepino[4,3-e]purin-2-yl)pyrimidin-2-amine]"
15,210,"CC1(C)OCCCn2c1nc1c(N3CCCC3)nc(-c3cnc(N)nc3)nc12 [Example 134, 5-(6,6-dimethyl-4-(pyrrolidin-1-yl)-6,8,9,10-tetrahydro-[1,4]oxazepino[4,3-e]purin-2-yl)pyrimidin-2-amine]"
16,59.7,"C[C@@H]1OCCn2c1nc1c(N3CC4CC3C4)nc(-c3cnc(N)nc3)nc12 (single isomer, unassigned) [Example 107]"
17,0.39,CCN(c1nc(-c2cnc(N)nc2)nc2c1nc1n2CCOC1(C)C)C1CC1 [Example 117]
18,52.1,"Nc1ncc(-c2nc(N3CC4CC3C4)c3nc4n(c3n2)CCOC42CCC2)cn1 [Example 114, 5-(4-(2-azabicyclo[2.1.1]hexan-2-yl)-8,9-dihydrospiro[[1,4]oxazino[4,3-e]purine-6,1′-cyclobutan]-2-yl)pyrimidin-2-amine]"
19,5.98,"CC1(C)OCCn2c1nc1c(N3CC4CC3C4)nc(-c3cnc(N)c(C(F)(F)F)c3)nc12 [Example 90, 5-(4-(2-azabicyclo[2.1.1]hexan-2-yl)-6,6-dimethyl-8,9-dihydro-6H-[1,4]oxazino[4,3-e]purin-2-yl)-3-(trifluoromethyl)pyridin-2-amine]"
20,157,"C[C@H]1COC(C)(C)c2nc3c(C4CC4)nc(-c4cnc(N)nc4)nc3n21 (single isomer, unassigned) [Example 102]"
21,478,"CC1(C)OCCn2c1nc1c(N3CC4CC3C4)nc(-c3cncc(C(F)(F)F)c3)nc12 [Example 92, 4-(2-azabicyclo[2.1.1]hexan-2-yl)-6,6-dimethyl-2-(5-(trifluoromethyl)pyridin-3-yl)-8,9-dihydro-6H-[1,4]oxazino[4,3-e]purine]"
22,280,CC1(C)OCCn2c1nc1c(N3CCC(F)(F)C3)nc(-c3cnc(N)c(F)c3)nc12 [Example 82]
